Measurements taken from the supplement of paper PMC5908809.

What was measured:
[1] = system: normal NK cells expanded with K562-aAPC; test: percent inhibition of viability; higher = more inhibition; settings: 72 h, IL-2 2.5 ng/mL
Description: (§1)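 Drug sensitivity and resistance testing on K562-aAPC-expanded normal NK cells: 5 concentrations (10-fold steps over a 10,000-fold range), 72 h at 37 °C, viability by CellTiter-Glo normalised to DMSO and benzethonium chloride controls; DSS from the fitted curve.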

SNK-6 (IL-2 2.5 ng/mL) [2] = test: as above; settings: 72 h
DERL-7 (IL-2 2.5 ng/mL) [3] = test: as above; settings: 72 h
IMC-1 (IL-2 20 ng/mL) [4] = test: as above; settings: 72 h
[5] = system: normal primary NK cells, pool 1 (3 donors), resting (IL-2 0 ng/mL); test: as above; settings: 72 h
[6] = system: normal primary NK cells, pool 1 (3 donors) (IL-2 2.5 ng/mL); test: as above; settings: 72 h
NK-92 (IL-2 2.5 ng/mL) [7] = test: as above; settings: 72 h
[8] = system: normal primary NK cells, pool 2 (3 donors) (IL-2 2.5 ng/mL); test: as above; settings: 72 h
NKL (IL-2 2.5 ng/mL) [9] = test: as above; settings: 72 h
KAI3 (IL-2 2.5 ng/mL) [10] = test: as above; settings: 72 h
YT (IL-2 2.5 ng/mL) [11] = test: as above; settings: 72 h
NK-YS (IL-2 2.5 ng/mL) [12] = test: as above; settings: 72 h
KHYG-1 (IL-2 2.5 ng/mL) [13] = test: as above; settings: 72 h
[14] = system: normal primary NK cells, pool 3 (3 donors) (IL-2 2.5 ng/mL); test: as above; settings: 72 h
SNK-6 (IL-2 2.5 ng/mL) [15] = test: drug sensitivity score (DSS) (DSS units); higher = more sensitive; extreme values may be limits of the assay; settings: 72 h
DERL-7 (IL-2 2.5 ng/mL) [16] = test: as above; settings: 72 h
IMC-1 (IL-2 20 ng/mL) [17] = test: as above; settings: 72 h
[18] = system: normal primary NK cells, pool 1 (3 donors), resting (IL-2 0 ng/mL); test: as above; settings: 72 h
[19] = system: normal primary NK cells, pool 1 (3 donors) (IL-2 2.5 ng/mL); test: as above; settings: 72 h
NK-92 (IL-2 2.5 ng/mL) [20] = test: as above; settings: 72 h
[21] = system: normal primary NK cells, pool 2 (3 donors) (IL-2 2.5 ng/mL); test: as above; settings: 72 h
NKL (IL-2 2.5 ng/mL) [22] = test: as above; settings: 72 h
KAI3 (IL-2 2.5 ng/mL) [23] = test: as above; settings: 72 h
YT (IL-2 2.5 ng/mL) [24] = test: as above; settings: 72 h
NK-YS (IL-2 2.5 ng/mL) [25] = test: as above; settings: 72 h
KHYG-1 (IL-2 2.5 ng/mL) [26] = test: as above; settings: 72 h
[27] = system: normal primary NK cells, pool 3 (3 donors) (IL-2 2.5 ng/mL); test: as above; settings: 72 h
[28] = system: normal NK cells expanded with K562-aAPC; test: as above; settings: 72 h; IL-2 2.5 ng/mL
Description: as §1

O=C(CCCCCCC(=O)Nc1ccccc1)NO [Vorinostat] (max concentration tested 10000 nM)
percent inhibition of viability [%]
Settings | 1 nM | 10 nM | 100 nM | 1000 nM | 10000 nM
DERL-7 (IL-2 2.5 ng/mL) [3] | -1.03 | -2.59 | -8.59 | 72 | 101
IMC-1 (IL-2 20 ng/mL) [4] | -3.93 | -0.96 | -3.21 | 10.4 | 101
KAI3 (IL-2 2.5 ng/mL) [10] | -1.17 | 1.24 | 28.6 | 72.4 | 106
KHYG-1 (IL-2 2.5 ng/mL) [13] | -10.8 | -5.48 | -3.11 | 83.4 | 108
NK-92 (IL-2 2.5 ng/mL) [7] | -12.1 | -8.53 | 8.96 | 76.6 | 107
NK-YS (IL-2 2.5 ng/mL) [12] | -9.89 | -6.61 | -3.67 | 40.2 | 105
NKL (IL-2 2.5 ng/mL) [9] | -8.87 | -13.6 | 15.1 | 78.1 | 107
SNK-6 (IL-2 2.5 ng/mL) [2] | 1.27 | -7.67 | 9.77 | 59.8 | 100
YT (IL-2 2.5 ng/mL) [11] | -0.8 | -1.86 | 3.47 | 27.2 | 106
[1] | -0.79 | -2.42 | 2.48 | 56.2 | 100
[5] | -1.81 | 11.6 | 10.4 | 71.9 | 90.8
[6] | 10.5 | 10 | 21.7 | 67.8 | 98.3
[8] | -5.53 | -2.6 | -3.11 | 42.6 | 96.4
[14] | -8.36 | -6.48 | 0.69 | 14.9 | 98.3

Settings | drug sensitivity score
DERL-7 (IL-2 2.5 ng/mL) [16] | 13.7
IMC-1 (IL-2 20 ng/mL) [17] | 7.28
KAI3 (IL-2 2.5 ng/mL) [23] | 17.3
KHYG-1 (IL-2 2.5 ng/mL) [26] | 15.2
NK-92 (IL-2 2.5 ng/mL) [20] | 15.4
NK-YS (IL-2 2.5 ng/mL) [25] | 10.9
NKL (IL-2 2.5 ng/mL) [22] | 16.4
SNK-6 (IL-2 2.5 ng/mL) [15] | 13
YT (IL-2 2.5 ng/mL) [24] | 9.63
[18] | 14.8
[19] | 15.7
[21] | 10.8
[27] | 7.93
[28] | 12.2

Oc1nc(-c2ccc(C(F)(F)F)cc2)nc2c1CSCC2 [XAV-939] (max concentration tested 10000 nM)
percent inhibition of viability [%]
Settings | 1 nM | 10 nM | 100 nM | 1000 nM | 10000 nM
DERL-7 (IL-2 2.5 ng/mL) [3] | -0.97 | 2.31 | -5.81 | -0.61 | -5.6
IMC-1 (IL-2 20 ng/mL) [4] | -0.75 | 0.78 | 6.56 | 9.99 | 39.2
KAI3 (IL-2 2.5 ng/mL) [10] | -2.16 | 1.91 | 4.79 | 4.07 | 5.97
KHYG-1 (IL-2 2.5 ng/mL) [13] | -8.26 | -1.11 | 3.24 | 1.73 | 10.4
NK-92 (IL-2 2.5 ng/mL) [7] | -10.9 | 2.21 | 17.2 | 22 | 31.4
NK-YS (IL-2 2.5 ng/mL) [12] | -12.6 | -2.95 | -1.3 | -3.02 | 5.39
NKL (IL-2 2.5 ng/mL) [9] | 1.91 | -6.23 | 10.7 | 20.1 | 4.9
SNK-6 (IL-2 2.5 ng/mL) [2] | -1.06 | -8.2 | 12.5 | 35.6 | 76
YT (IL-2 2.5 ng/mL) [11] | 4.14 | 5.64 | 7.84 | -1.3 | 6.37
[1] | 1.61 | 2.89 | 1.43 | 14.1 | 19.3
[5] | -4.7 | -1.64 | -3.21 | -28.2 | -2.43
[6] | 7.73 | 0.81 | -0.78 | 0.58 | 4.2
[8] | -8.38 | -12 | -5.14 | 5.25 | 5.51
[14] | -11 | -5.69 | -2.72 | 0.89 | 10.2

Settings | drug sensitivity score
DERL-7 (IL-2 2.5 ng/mL) [16] | 0
IMC-1 (IL-2 20 ng/mL) [17] | 3.24
KAI3 (IL-2 2.5 ng/mL) [23] | 0
KHYG-1 (IL-2 2.5 ng/mL) [26] | 0.01
NK-92 (IL-2 2.5 ng/mL) [20] | 5.52
NK-YS (IL-2 2.5 ng/mL) [25] | 0
NKL (IL-2 2.5 ng/mL) [22] | 0.48
SNK-6 (IL-2 2.5 ng/mL) [15] | 8.49
YT (IL-2 2.5 ng/mL) [24] | 0
[18] | 0
[19] | 0
[21] | 0
[27] | 0
[28] | 1.76

c1ccc(Cn2c(-c3ccc(OC[C@H](C4CCNCC4)n4c(-c5ccccc5)nc5ccccc54)cc3)nc3ccccc32)cc1 [deltarasin] (max concentration tested 10000 nM)
percent inhibition of viability [%]
Settings | 1 nM | 10 nM | 100 nM | 1000 nM | 10000 nM
DERL-7 (IL-2 2.5 ng/mL) [3] | -6.29 | 6.05 | -2.6 | 15.6 | 100
IMC-1 (IL-2 20 ng/mL) [4] | -1.41 | -1.69 | -5.88 | -8.23 | 100
KAI3 (IL-2 2.5 ng/mL) [10] | 1.58 | 6.95 | 3.87 | 19.1 | 99.1
KHYG-1 (IL-2 2.5 ng/mL) [13] | -3.81 | -4.92 | -1.42 | 4.21 | 99.4
NK-92 (IL-2 2.5 ng/mL) [7] | -6.78 | -14.8 | -7.87 | 17.8 | 98.7
NK-YS (IL-2 2.5 ng/mL) [12] | 1.38 | 0.11 | 0.9 | 9.01 | 99.1
NKL (IL-2 2.5 ng/mL) [9] | -1.26 | -0.19 | 0.54 | 13.1 | 100
SNK-6 (IL-2 2.5 ng/mL) [2] | -2.79 | 1.66 | -4.21 | -2.37 | 100
YT (IL-2 2.5 ng/mL) [11] | -7.64 | -4.86 | -5.15 | 6.64 | 99
[1] | -6.73 | -5.61 | -6.67 | -4.59 | 100
[5] | -29 | -22.3 | -17.1 | 22.4 | 100
[6] | -6.29 | -12.3 | -0.84 | 3.6 | 100
[8] | 3.52 | -1.56 | -7.68 | 10.8 | 100
[14] | -5.09 | -3.8 | -9.07 | 2.9 | 101

Settings | drug sensitivity score
DERL-7 (IL-2 2.5 ng/mL) [16] | 8.12
IMC-1 (IL-2 20 ng/mL) [17] | 5
KAI3 (IL-2 2.5 ng/mL) [23] | 8.58
KHYG-1 (IL-2 2.5 ng/mL) [26] | 6.1
NK-92 (IL-2 2.5 ng/mL) [20] | 8.37
NK-YS (IL-2 2.5 ng/mL) [25] | 6.93
NKL (IL-2 2.5 ng/mL) [22] | 7.72
SNK-6 (IL-2 2.5 ng/mL) [15] | 5.39
YT (IL-2 2.5 ng/mL) [24] | 6.49
[18] | 9.04
[19] | 6.08
[21] | 7.32
[27] | 6.03
[28] | 5.21
